Tests used:
Type in all cases: in vivo
[1] = test system: Echinochloa oryzacola Vasing.; experiment: Test Example 1: herbicidal activity, application before weed generation in submerged conditions (symbol A); details: application herbicide amount 320 g/ha
In short: (§1)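 Ratings (5: ≥90%, near complete withering; 4: 70–<90%; 3: 40–<70%; 2: 20–<40%; 1: 5–<20%; 0: ≤5%) were assigned 3 weeks after the diluted emulsion was applied to the water surface of freshly sown, submerged pots.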

[2] = test system: Scirpus juncoides; experiment: Test Example 1: herbicidal activity, application before weed generation in submerged conditions (symbol B); details: application herbicide amount 320 g/ha
In short: as §1

[3] = test system: transplanted rice plant; experiment: Test Example 1: effect on crop, application before weed generation in submerged conditions (symbol a); details: application herbicide amount 320 g/ha
In short: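 Alluvial soil pots flooded to 4 cm water, sown with Echinochloa oryzacola, Scirpus juncoides and Monochoria vaginalis, then transplanted with 2.5 leaf stage rice seedlings; pre-emergence application. Greenhouse 25° C. to 30° C.; scored 0–5 by herbicidal ratio 3 weeks after application.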

[4] = test system: Monochoria vaginalis; experiment: Test Example 2: herbicidal activity, application during weed generation in submerged conditions (symbol C); details: Table 23; application herbicide amount 320 g/ha; grade 0-5 by criteria of Test Example 1
In short: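 Paddy pot test, submerged (4 cm water), alluvial soil, mixed sowing; greenhouse 25–30° C. Emulsion formulation diluted to predetermined rate, applied onto floodwater at 1–2 leaf stage. Visual herbicidal rating at 3 wk post-treatment.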

[5] = test system: directly sowed rice plant; experiment: Test Example 3: effect on crop by foliage application, Wagner pot (symbol b); details: application herbicide amount 320 g/ha
In short: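 Wagner pot (1/10000 are), alluvial soil, submerged 0.1–0.5 cm; sown E. crus-galli var. crus-galli, L. chinensis, C. difformis, rice; greenhouse 25–30 °C.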

[6] = test system: Avena fatua; experiment: Test Example 4: herbicidal effect by soil treatment (symbol I); details: application herbicide amount 320 g/ha
In short: (§2)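 Seeds were sown in sterilized diluvial soil, covered with about 1.5 cm of soil, and the soil surface was sprayed with a water-diluted emulsion of the compound at a predetermined rate. Plants grew in a greenhouse at 25° C. to 30° C.; effects were scored visually 3 weeks after application.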

[7] = test system: Alopecurus myosuroides; experiment: Test Example 4: herbicidal effect by soil treatment (symbol J); details: application herbicide amount 320 g/ha
In short: as §2

[8] = test system: Abutilon theophrasti; experiment: Test Example 4: herbicidal effect by soil treatment (symbol M); details: application herbicide amount 320 g/ha
In short: as §2

[9] = test system: Amaranthus retroflexus; experiment: Test Example 4: herbicidal effect by soil treatment (symbol N); details: application herbicide amount 320 g/ha
In short: as §2

[10] = test system: soybean; experiment: Test Example 4: effect on crop by soil treatment (symbol d); details: application herbicide amount 320 g/ha
In short: (§3)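 Steps: fill box with sterilized diluvial soil; sow seed spot-like; cover with ~1.5 cm soil; grow in greenhouse (25° C. to 30° C.).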

[11] = test system: beet; experiment: Test Example 4: effect on crop by soil treatment (symbol f); details: application herbicide amount 320 g/ha
In short: as §3

[12] = test system: rapeseed; experiment: Test Example 4: effect on crop by soil treatment (symbol g); details: application herbicide amount 320 g/ha
In short: as §3

[13] = test system: Digitaria ciliaris; experiment: Test Example 5: herbicidal effect by foliage application, plastic box (symbol F); details: 320 g/ha, 3 weeks after application
In short: (§4)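 Visual herbicidal score, taken three weeks post-application, of seedlings sprayed on the foliage with water-diluted emulsion at a predetermined amount; plants were 14 days old, greenhouse-raised at 25° C. to 30° C.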

[14] = test system: Echinochloa crus-galli var. crus-galli; experiment: Test Example 5: herbicidal effect by foliage application, plastic box (symbol H); details: 320 g/ha, 3 weeks after application
In short: as §4

| Compound | Herbicidal effect grade, A: Echinochloa oryzacola Vasing. [1] | Herbicidal effect grade, B: Scirpus juncoides [2] | Effect grade on crop, a: transplanted rice plant [3] | Herbicidal effect grade, C: Monochoria vaginalis [4] | effect on crop b (directly sowed rice plant), grade 0-5 [5] | I: Avena fatua, herbicidal effect grade [6] | J: Alopecurus myosuroides, herbicidal effect grade [7] | M: Abutilon theophrasti, herbicidal effect grade [8] | N: Amaranthus retroflexus, herbicidal effect grade [9] | d: soybean, effect on crop grade [10] | f: beet, effect on crop grade [11] | g: rapeseed, effect on crop grade [12] | F: Digitaria ciliaris, herbicidal effect grade [13] | H: Echinochloa crus-galli var. crus-galli, herbicidal effect grade [14] | also measured |
| --- | --- | --- | --- | --- | --- | --- | --- | --- | --- | --- | --- | --- | --- | --- | --- |
| CON=C(C)CC1CC(O)=C(c2c(C)cc(C#CC3CC3)cc2C)C1=O (mixture of isomers) [6-010] | 5 (Herbicidal ratio of 90% or more (almost completely withered)) | 4 (Herbicidal ratio of 70% or higher and lower than 90%) | 5 (Herbicidal ratio of 90% or more (almost completely withered)) | 0 (Herbicidal ratio of 5% or lower (almost no effect)) | 5 (Herbicidal ratio of 90% or more (almost completely withered)) | 3 (Herbicidal ratio of 40% or higher and lower than 70%) | 5 (Herbicidal ratio of 90% or more (almost completely withered)) | 3 (Herbicidal ratio of 40% or higher and lower than 70%) | 1 (Herbicidal ratio of 5% or higher and lower than 20%) | 0 (Herbicidal ratio of 5% or lower (almost no effect)) | 0 (Herbicidal ratio of 5% or lower (almost no effect)) | 0 (Herbicidal ratio of 5% or lower (almost no effect)) | 5 (Herbicidal ratio of 90% or more (almost completely withered)) | 5 (Herbicidal ratio of 90% or more (almost completely withered)) | – |
| CON=C(C)CC1CC(OCCSC)=C(c2c(C)cc(C)cc2C)C1=O (stereo not shown) [1-011] | 0 (Herbicidal ratio of 5% or lower (almost no effect)) | 0 (Herbicidal ratio of 5% or lower (almost no effect)) | 0 (Herbicidal ratio of 5% or lower (almost no effect)) | 0 (Herbicidal ratio of 5% or lower (almost no effect)) | 0 (Herbicidal ratio of 5% or lower (almost no effect)) | – | – | – | – | – | – | – | 3 (Herbicidal ratio of 40% or higher and lower than 70%) | 0 (Herbicidal ratio of 5% or lower (almost no effect)) | I (Avena fatua) herbicidal effect grade [6]: 0 (Herbicidal ratio of 5% or lower (almost no effect)); J (Alopecurus myosuroides) herbicidal effect grade [7]: 0 (Herbicidal ratio of 5% or lower (almost no effect)); M (Abutilon theophrasti) herbicidal effect grade [8]: 0 (Herbicidal ratio of 5% or lower (almost no effect)); N (Amaranthus retroflexus) herbicidal effect grade [9]: 0 (Herbicidal ratio of 5% or lower (almost no effect)); d (soybean) effect on crop grade [10]: 0 (Herbicidal ratio of 5% or lower (almost no effect)); f (beet) effect on crop grade [11]: 0 (Herbicidal ratio of 5% or lower (almost no effect)); g (rapeseed) effect on crop grade [12]: 0 (Herbicidal ratio of 5% or lower (almost no effect)) |
| Cc1cc(C)c(C2=C(O)CC(CC(=O)C3CC3)C2=O)c(C)c1 (stereo not shown) [2-017] | 5 (Herbicidal ratio of 90% or more (almost completely withered)) | 5 (Herbicidal ratio of 90% or more (almost completely withered)) | 5 (Herbicidal ratio of 90% or more (almost completely withered)) | 4 (Herbicidal ratio of 70% or higher and lower than 90%) | 5 (Herbicidal ratio of 90% or more (almost completely withered)) | 0 (Herbicidal ratio of 5% or lower (almost no effect)) | 3 (Herbicidal ratio of 40% or higher and lower than 70%) | 4 (Herbicidal ratio of 70% or higher and lower than 90%) | 0 (Herbicidal ratio of 5% or lower (almost no effect)) | 0 (Herbicidal ratio of 5% or lower (almost no effect)) | 0 (Herbicidal ratio of 5% or lower (almost no effect)) | 5 (Herbicidal ratio of 90% or more (almost completely withered)) | 5 (Herbicidal ratio of 90% or more (almost completely withered)) | 5 (Herbicidal ratio of 90% or more (almost completely withered)) | – |
| CCc1cc(Br)cc(C)c1C1=C(O)CC(CC(C)=NOC)C1=O (stereo not shown) [6-001] | 5 (Herbicidal ratio of 90% or more (almost completely withered)) | 0 (Herbicidal ratio of 5% or lower (almost no effect)) | 5 (Herbicidal ratio of 90% or more (almost completely withered)) | 0 (Herbicidal ratio of 5% or lower (almost no effect)) | 5 (Herbicidal ratio of 90% or more (almost completely withered)) | 5 (Herbicidal ratio of 90% or more (almost completely withered)) | 5 (Herbicidal ratio of 90% or more (almost completely withered)) | 0 (Herbicidal ratio of 5% or lower (almost no effect)) | 0 (Herbicidal ratio of 5% or lower (almost no effect)) | 0 (Herbicidal ratio of 5% or lower (almost no effect)) | 0 (Herbicidal ratio of 5% or lower (almost no effect)) | 2 (Herbicidal ratio of 20% or higher and lower than 40%) | 5 (Herbicidal ratio of 90% or more (almost completely withered)) | 5 (Herbicidal ratio of 90% or more (almost completely withered)) | – |
| CCc1cc(Br)cc(C)c1C1=C(O)CC(C(C(=O)OC)C(C)=NOC)C1=O (stereo not shown) [6-002] | 3 (Herbicidal ratio of 40% or higher and lower than 70%) | 0 (Herbicidal ratio of 5% or lower (almost no effect)) | 3 (Herbicidal ratio of 40% or higher and lower than 70%) | 0 (Herbicidal ratio of 5% or lower (almost no effect)) | 5 (Herbicidal ratio of 90% or more (almost completely withered)) | 0 (Herbicidal ratio of 5% or lower (almost no effect)) | 2 (Herbicidal ratio of 20% or higher and lower than 40%) | 0 (Herbicidal ratio of 5% or lower (almost no effect)) | 0 (Herbicidal ratio of 5% or lower (almost no effect)) | 0 (Herbicidal ratio of 5% or lower (almost no effect)) | 0 (Herbicidal ratio of 5% or lower (almost no effect)) | 0 (Herbicidal ratio of 5% or lower (almost no effect)) | 5 (Herbicidal ratio of 90% or more (almost completely withered)) | 5 (Herbicidal ratio of 90% or more (almost completely withered)) | – |

Source: patent US11000033B2, “Ketone or oxime compound, and herbicide” (NISSAN CHEMICAL CORPORATION, priority 2014, dated 2021)
